The target of assay [1] is T1, DNA (cytosine-5)-methyltransferase 3B (Homo sapiens, UniProt Q9UBC3). The experiment in a line: biochemical.
Assay [2] deals with DNA (cytosine-5)-methyltransferase 1 (Homo sapiens, UniProt P26358). The assay can be described thus: Inhibition of human recombinant DNMT1 expressed in baculovirus infected high five insect cells.
The target in assay [3] is T1, DNA (cytosine-5)-methyltransferase 3B. The assay can be described thus: Inhibition of human recombinant DNMT3b2 expressed in baculovirus infected high five insect cells at 45 uM.

The record followed here is ChEMBL document CHEMBL1151871, “SAR around (l)-S-adenosyl-l-homocysteine, an inhibitor of human DNA methyltransferase (DNMT) enzymes” (Bioorg Med Chem Lett, 2009).

Structures are written as SMILES. Calls of active or inactive are those of the source. The rule behind the calls is not given here. Bounds are passed on as bounds.

Sequence of DNA (cytosine-5)-methyltransferase 1 (P26358 whole entry): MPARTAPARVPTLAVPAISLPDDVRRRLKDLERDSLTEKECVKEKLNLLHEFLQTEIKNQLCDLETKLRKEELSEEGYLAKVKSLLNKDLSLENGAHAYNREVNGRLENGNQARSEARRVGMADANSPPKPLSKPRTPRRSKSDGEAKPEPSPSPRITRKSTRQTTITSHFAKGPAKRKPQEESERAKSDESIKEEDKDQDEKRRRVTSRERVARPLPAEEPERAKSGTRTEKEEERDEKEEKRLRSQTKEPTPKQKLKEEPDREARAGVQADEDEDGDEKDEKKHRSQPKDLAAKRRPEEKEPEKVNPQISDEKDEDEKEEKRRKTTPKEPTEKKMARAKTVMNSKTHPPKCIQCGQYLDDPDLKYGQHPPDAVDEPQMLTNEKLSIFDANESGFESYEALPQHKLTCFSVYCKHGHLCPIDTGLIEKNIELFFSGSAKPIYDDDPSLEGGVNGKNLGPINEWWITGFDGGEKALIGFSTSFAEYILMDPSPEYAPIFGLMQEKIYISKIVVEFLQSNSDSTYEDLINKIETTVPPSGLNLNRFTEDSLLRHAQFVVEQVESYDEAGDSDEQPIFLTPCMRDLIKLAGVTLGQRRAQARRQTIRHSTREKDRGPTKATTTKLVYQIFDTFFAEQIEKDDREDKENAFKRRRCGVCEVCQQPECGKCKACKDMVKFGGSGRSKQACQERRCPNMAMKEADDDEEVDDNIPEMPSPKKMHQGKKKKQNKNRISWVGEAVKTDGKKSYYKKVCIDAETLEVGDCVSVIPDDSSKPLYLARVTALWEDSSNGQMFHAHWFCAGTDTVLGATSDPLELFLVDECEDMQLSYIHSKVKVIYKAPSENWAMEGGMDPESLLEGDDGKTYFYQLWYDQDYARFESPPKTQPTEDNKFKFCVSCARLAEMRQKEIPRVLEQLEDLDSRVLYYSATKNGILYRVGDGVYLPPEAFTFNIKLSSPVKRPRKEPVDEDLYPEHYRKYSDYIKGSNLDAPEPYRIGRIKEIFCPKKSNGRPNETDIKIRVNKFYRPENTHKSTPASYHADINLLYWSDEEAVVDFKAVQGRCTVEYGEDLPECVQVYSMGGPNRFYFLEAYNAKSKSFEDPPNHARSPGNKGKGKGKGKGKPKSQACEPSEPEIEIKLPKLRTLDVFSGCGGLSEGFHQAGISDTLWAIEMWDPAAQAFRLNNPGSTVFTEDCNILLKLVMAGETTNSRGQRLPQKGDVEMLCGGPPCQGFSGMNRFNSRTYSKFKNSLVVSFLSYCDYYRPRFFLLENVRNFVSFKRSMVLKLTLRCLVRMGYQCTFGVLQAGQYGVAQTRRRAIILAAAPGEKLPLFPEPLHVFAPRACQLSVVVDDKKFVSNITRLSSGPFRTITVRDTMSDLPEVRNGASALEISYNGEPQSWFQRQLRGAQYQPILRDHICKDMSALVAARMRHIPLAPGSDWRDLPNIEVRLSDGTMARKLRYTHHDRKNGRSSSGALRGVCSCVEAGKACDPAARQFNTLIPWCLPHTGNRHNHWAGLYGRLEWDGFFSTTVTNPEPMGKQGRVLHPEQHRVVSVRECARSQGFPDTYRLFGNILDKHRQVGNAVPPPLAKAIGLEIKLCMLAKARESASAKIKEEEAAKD

As a reminder, the IC50 is the midpoint of a concentration-inhibition curve. As for `CSc1nc(N)c2ncn([C@@H]3O[C@H](CSCCC(N)C(=O)O)[C@@H](O)[C@H]3O)c2n1` (some centres undefined), the IC50 in assay [1] is 500 µM; in assay [2], 216 µM.

For `COc1nc(N)c2ncn([C@@H]3O[C@H](CSCCC(N)C(=O)O)[C@@H](O)[C@H]3O)c2n1` (some centres undefined), the inhibition result in assay [3] was “inactive”. For the same compound, the IC50 in assay [2] turned out to be 75 µM.

`Nc1ncnc2c1ncn2[C@@H]1O[C@H](CSCC[C@H](N)C(=O)O)[C@@H](O)[C@H]1O` (racemic) [S-ADENOSYLHOMOCYSTEINE] returned a 50% inhibitory concentration (IC50) in assay [1] of 0.3 µM.

In the case of `NC(CCSC[C@H]1O[C@@H](n2cnc3c(NCc4ccccc4)ncnc32)[C@H](O)[C@@H]1O)C(=O)O` (some centres undefined), the half-inhibitory concentration (IC50) in assay [1] came to 1 µM; in assay [2], 61 µM.

Take `N[C@@H](CCSC[C@H]1O[C@@H](n2cnc3c(=O)[nH]cnc32)[C@H](O)[C@@H]1O)C(=O)O`: in assay [1], the half-maximal inhibitory concentration (IC50) is > 1000 µM.

On to `Nc1ncnc2c1nnn2[C@@H]1O[C@H](CSCCC(N)C(=O)O)[C@@H](O)[C@H]1O` (some centres undefined), for which the concentration for half-maximal inhibition (IC50) in assay [2] was determined as 8 µM.
